# Where “and” joins values, the source holds several entries; their conditions need not be identical. Equal entries are not always repeated.
# Tests used:
# [1] = target: T1, Transporter, Dopamine (DAT) (Homo sapiens, UniProt Q01959); assay: Radioligand binding, Transporter, Dopamine (DAT) (Eurofin Discovery 220320); conditions: 100 nM compound
# T1 construct: host or cells: CHO-S cells
# [2] = target: T2, Transporter, Norepinephrine (NET) (Homo sapiens, UniProt P23975); assay: Radioligand binding, Transporter, Norepinephrine (NET) (Eurofin Discovery 204410); conditions: 100 nM compound
# T2 construct: host or cells: MDCK cells
# T2 sequence (P23975 whole entry): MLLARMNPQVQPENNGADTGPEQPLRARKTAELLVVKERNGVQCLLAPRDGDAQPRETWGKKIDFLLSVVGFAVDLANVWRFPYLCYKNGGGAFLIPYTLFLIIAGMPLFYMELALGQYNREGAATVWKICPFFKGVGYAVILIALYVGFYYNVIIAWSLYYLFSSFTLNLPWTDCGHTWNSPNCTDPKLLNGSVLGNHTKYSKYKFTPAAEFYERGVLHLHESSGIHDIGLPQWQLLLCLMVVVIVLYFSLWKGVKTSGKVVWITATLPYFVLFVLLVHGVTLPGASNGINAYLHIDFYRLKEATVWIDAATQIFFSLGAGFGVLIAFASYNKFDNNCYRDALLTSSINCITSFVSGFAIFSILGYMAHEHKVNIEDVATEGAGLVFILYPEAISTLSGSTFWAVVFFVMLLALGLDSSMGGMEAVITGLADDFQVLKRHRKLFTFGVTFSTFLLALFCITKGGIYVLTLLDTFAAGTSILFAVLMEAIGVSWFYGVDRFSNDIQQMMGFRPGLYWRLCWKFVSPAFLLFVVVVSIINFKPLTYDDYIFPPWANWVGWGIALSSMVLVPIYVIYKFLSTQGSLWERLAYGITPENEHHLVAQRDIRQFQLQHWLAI
# [3] = target: T3, serotonin transporters (SERT) (Homo sapiens, UniProt P31645); assay: PET receptor occupancy at SERT, tracer 11C-MADAM; type: in vivo; conditions: for SERT RO%: healthy males
# T3 construct: from tissue; host or cells: brain (striatum, thalamus) of healthy male volunteers, in vivo PET
# T3 sequence (P31645 whole entry): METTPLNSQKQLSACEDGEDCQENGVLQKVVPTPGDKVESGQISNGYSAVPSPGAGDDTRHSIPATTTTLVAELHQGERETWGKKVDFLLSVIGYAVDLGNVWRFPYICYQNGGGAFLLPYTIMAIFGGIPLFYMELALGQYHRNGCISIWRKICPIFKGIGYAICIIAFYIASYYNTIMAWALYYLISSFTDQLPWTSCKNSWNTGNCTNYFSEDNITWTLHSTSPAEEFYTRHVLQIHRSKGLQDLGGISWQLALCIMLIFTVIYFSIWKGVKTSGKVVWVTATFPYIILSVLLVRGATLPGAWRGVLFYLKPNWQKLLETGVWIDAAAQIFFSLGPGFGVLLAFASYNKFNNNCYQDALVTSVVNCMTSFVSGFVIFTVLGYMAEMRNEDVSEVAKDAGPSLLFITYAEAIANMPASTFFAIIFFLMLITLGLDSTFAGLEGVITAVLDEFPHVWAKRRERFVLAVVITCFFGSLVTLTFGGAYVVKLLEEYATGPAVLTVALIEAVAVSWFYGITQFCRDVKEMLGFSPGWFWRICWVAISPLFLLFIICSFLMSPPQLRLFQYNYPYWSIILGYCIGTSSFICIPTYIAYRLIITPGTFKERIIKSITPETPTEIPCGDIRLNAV
# Source text: (§1) The PET study was a part of a strategy in previous clinical development of the compound of formula I to evaluate in healthy male volunteers with respect to safety, tolerability and pharmacokinetics as well as DAT and SERT occupancy.
# (§2) The relationship between plasma the compound of formula I concentration and SERT occupancies, using the individual values, is presented in FIG. 8 and FIG. 9. The numeric values for the individual SERT and […] occupancy and the corresponding plasma concentrations are tabulated in Example 12.
# (§3) Striatal receptor occupancy at dopamine transporters (DAT) and serotonin transporters (SERT) with plasma concentrations of Formula I at the midpoint time of the post dosing PET (positron emission tomography) scans (T=4 and 24) after once-a-day multiple doses of 3-60 mg and 10-60 mg for SERT and DAT healthy male cohorts, respectively (Tables below, RO stands for receptor occupancy). Post dosing PET scans were conducted at day 10 (4 h post last dose) and day 14 (24 h post last dose) assuming steady state conditions, using the specific DAT and SERT tracers ^11 C-PE2I and ^11 C-MADAM, respectively. For 45 mg and 60 mg cohorts, there was titration by administration of 30 mg for 3 days and then from day 4 the specified dose. Representative reports on using these two tracers are Learned-Coughlin SM et al, Biol Psychiatry.2003, 54(8):800-5; Jucaite A et al, Eur J Nucl Med Mol Imaging. 2006, 33(6):657-68; and Lundberg J et al, Int J Neuropsychopharmacol. 2007, 10(6):777-85.
# [4] = target: T4, dopamine transporters (DAT) (Homo sapiens, UniProt Q01959); assay: PET striatal receptor occupancy at DAT, tracer 11C-PE2I; type: in vivo; conditions: following multiple doses of 60 mg, PET study in healthy males
# T4 construct: from tissue; host or cells: striatum of healthy male volunteers, in vivo PET
# T4 sequence (Q01959 whole entry): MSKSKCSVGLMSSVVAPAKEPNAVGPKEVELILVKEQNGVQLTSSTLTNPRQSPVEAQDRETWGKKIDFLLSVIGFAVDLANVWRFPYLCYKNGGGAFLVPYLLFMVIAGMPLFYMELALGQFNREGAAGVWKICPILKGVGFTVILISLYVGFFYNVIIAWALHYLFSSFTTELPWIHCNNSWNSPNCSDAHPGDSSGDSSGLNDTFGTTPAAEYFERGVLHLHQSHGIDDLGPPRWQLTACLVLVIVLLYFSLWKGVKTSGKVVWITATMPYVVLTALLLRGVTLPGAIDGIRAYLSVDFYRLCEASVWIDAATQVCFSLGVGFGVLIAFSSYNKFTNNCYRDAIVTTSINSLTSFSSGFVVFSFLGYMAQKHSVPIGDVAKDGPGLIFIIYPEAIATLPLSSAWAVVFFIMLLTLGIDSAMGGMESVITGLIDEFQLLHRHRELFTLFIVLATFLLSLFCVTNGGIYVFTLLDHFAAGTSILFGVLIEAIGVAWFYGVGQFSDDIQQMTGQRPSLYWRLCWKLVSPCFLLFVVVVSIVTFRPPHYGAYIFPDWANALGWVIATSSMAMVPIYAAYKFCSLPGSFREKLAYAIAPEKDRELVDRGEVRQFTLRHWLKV
# Source text: as §1, §2
# as §3, with “Representative reports on using these two tracers are Learned-Coughlin SM et al, Biol Psychiatry.2003, 54(8):800-5; Jucaite A et al, Eur J Nucl Med Mol Imaging. 2006, 33(6):657-68; and Lundberg J et al, Int J Neuropsychopharmacol. 2007, 10(6):777-85.” left out
# [5] = Plasma concentrations at midpoint time of post dosing PET scans; type: in vivo, human; conditions: healthy males
# Protocol: (§4) A LC-MS/MS method was developed and validated for the quantitation of Formula I in 0.250 mL of human EDTA plasma in a total of 7 runs, out of which 1 run was rejected. The method utilized stable labeled Formula I as an internal standard. After the addition of the internal standard (equivalent to 285.4 ng/mL in human EDTA plasma) and 0.250 mL of each quality control (QC) sample and calibration standard, 0.525 mL of methyl t-butyl ether (MTBE) was added to the 96-well sample tubes. The organic layer was removed and evaporated to dryness using a liquid-liquid extraction (LLE). The residue was reconstituted and injected into the LC-MS/MS system. Chromatographic separation was achieved through gradient elution on an Acquity UPLC, BEH Shield RP18™, 50 × 2.1 mm, 1.7 µm particle size column. The mobile phase contained water, acetonitrile, ammonium formate, and formic acid. Detection was accomplished using a Sciex API 4000 tandem mass spectrometer in positive ion electrospray SRM mode. The standard curves, which ranged from 1.00 to 1000 ng/mL for Formula I, were fitted to a ⅟x2 weighted linear regression model. The intra-assay precisions, based on four levels of analytical QCs (low, mid, GM, and high), were within 4.2% CV and inter-assay precisions were within 7.2% CV for the analyte. The assay accuracy, expressed as %DEV, was within 6.4% of the nominal concentration values for the analyte. […] The LLOQ response ratio, when compared to the QC0 response ratio, was ≥ 5 in all matrix lots. The analyte was stable in human EDTA plasma for at least 24 h at room temperature, for at least 14 days at -20° C., and following at least 3 freeze- thaw cycles. The processed samples were stable for 72 hours (h) at room temperature.
# as §3
# [6] = 14-day once-a-day oral multiple ascending dose PK study; type: in vivo, human; parameters: AUC: unit not given here
# Source text: Tabulated, day-14 PK data (Cmax, Ctrough and AUC) for healthy humans in a 14-day, once-a-day oral dosing, multiple ascending dose study of compound of Formula I.
# [7] = Stability in human EDTA plasma (LC-MS/MS validation); type: in vitro ADME
# Protocol: as §4
# [8] = Population PK model (3-compartment) on human PK data; conditions: healthy volunteers, 3-compartment population PK model
# Source text: In alternative embodiments, provided are pharmacokinetic modeling and simulation methods for Formula I, comprising using human PK data, as described sequentially in FIG. 25 to FIG. 29. A 3-compartment model best described the human PK data. Between-patient variability in healthy volunteers were 20.2%.
# T1 sequence (Q01959 whole entry): as above
compound,measurement,setting,value
"Clc1ccc(C2CNCc3cc(-c4ccc5ncnn5c4)ccc32)cc1Cl (stereo not drawn) [Formula I, 7-([1,2,4]triazolo[1,5-a]pyridin-6-yl)-4-(3,4-dichlorophenyl)-1,2,3,4-tetrahydroisoquinoline]",inhibition at 0.1 µM,[1],92%
same,inhibition at 0.1 µM,[2],84%
same,SERT RO%,"[3]; 10 mg once-a-day, day 10, 4 h post last dose",53% and 52%
same,SERT RO%,"[3]; 10 mg once-a-day, day 14, 24 h post last dose",47% and 48% and 51%
same,SERT RO%,"[3]; 30 mg once-a-day, day 10, 4 h post last dose",71% and 72% and 74%
same,SERT RO%,"[3]; 30 mg once-a-day, day 14, 24 h post last dose",69% and 66% and 67%
same,SERT RO%,"[3]; 45 mg once-a-day, day 10, 4 h post last dose",73% and 74% and 75%
same,SERT RO%,"[3]; 45 mg once-a-day, day 14, 24 h post last dose",73% and 75% and 78%
same,SERT RO%,"[3]; 60 mg once-a-day, day 10, 4 h post last dose",70% and 61% and 76%
same,SERT RO%,"[3]; 60 mg once-a-day, day 14, 24 h post last dose",76% and 72% and 77%
same,SERT occupancy,"[3]; multiple doses of 30-60 mg at steady state, healthy male volunteers",65-75%
same,DAT occupancies,[4],≤ 60%
same,DAT occupancies,[4]; listed as formula I,up to 60%
same,Formula I plasma concentration,"[5]; DAT cohort, 10 mg once-a-day, day 10, 4 h",214 ng/mL and 173 ng/mL
same,Formula I plasma concentration,"[5]; DAT cohort, 10 mg once-a-day, day 14, 24 h",149 ng/mL and 147 ng/mL
same,Formula I plasma concentration,"[5]; DAT cohort, 45 mg once-a-day, day 10, 4 h",924 ng/mL and 905 ng/mL
same,Formula I plasma concentration,"[5]; DAT cohort, 45 mg once-a-day, day 14, 24 h",668 ng/mL and 673 ng/mL
same,Formula I plasma concentration,"[5]; DAT cohort, 60 mg once-a-day, day 10, 4 h",1263 ng/mL
same,Formula I plasma concentration,"[5]; DAT cohort, 60 mg once-a-day, day 14, 24 h",991 ng/mL
same,Formula I plasma concentration,"[5]; SERT cohort, 3 mg once-a-day, day 10, 4 h",64 ng/mL and 63 ng/mL
same,Formula I plasma concentration,"[5]; SERT cohort, 3 mg once-a-day, day 14, 24 h",45 ng/mL and 42 ng/mL
same,Formula I plasma concentration,"[5]; SERT cohort, 10 mg once-a-day, day 10, 4 h",184 ng/mL and 212 ng/mL
same,Formula I plasma concentration,"[5]; SERT cohort, 10 mg once-a-day, day 14, 24 h",129 ng/mL and 156 ng/mL
same,Formula I plasma concentration,"[5]; SERT cohort, 30 mg once-a-day, day 10, 4 h",847 ng/mL and 667 ng/mL
same,Formula I plasma concentration,"[5]; SERT cohort, 30 mg once-a-day, day 14, 24 h",434 ng/mL and 567 ng/mL
same,Formula I plasma concentration,"[5]; SERT cohort, 45 mg once-a-day, day 10, 4 h",1191 ng/mL and 1105 ng/mL
same,Formula I plasma concentration,"[5]; SERT cohort, 45 mg once-a-day, day 14, 24 h",904 ng/mL and 895 ng/mL
same,"Formula I plasma concentration (ng/ml), Cmax","[6]; healthy person alpha, 3 mg daily oral, day 14, Cmax (blood draw 1-3 h)",64 ng/mL and 67 ng/mL and 63 ng/mL and 77 ng/mL and 74 ng/mL
same,Formula I plasma concentration,"[6]; healthy person alpha, 3 mg daily oral, day 14, blood draw 0 h",36 ng/mL and 40 ng/mL and 31 ng/mL and 51 ng/mL and 44 ng/mL
same,Formula I plasma concentration,"[6]; healthy person alpha, 3 mg daily oral, day 14, blood draw about 23-24 h",38 ng/mL and 42 ng/mL and 34 ng/mL and 48 ng/mL and 50 ng/mL
same,AUC,"[6]; healthy person alpha, 3 mg daily oral, day 14, printed in row of 23-24 h blood draw",369 and 414 and 338 and 525 and 439 and 374
same,"Formula I plasma concentration (ng/ml), Cmax","[6]; healthy person alpha, 10 mg daily oral, day 14, Cmax (blood draw 1-3 h)",249 ng/mL and 243 ng/mL and 285 ng/mL and 259 ng/mL and 242 ng/mL
same,Formula I plasma concentration,"[6]; healthy person alpha, 10 mg daily oral, day 14, blood draw 0 h",127 ng/mL and 134 ng/mL and 183 ng/mL and 155 ng/mL and 147 ng/mL
same,Formula I plasma concentration,"[6]; healthy person alpha, 10 mg daily oral, day 14, blood draw about 23-24 h",130 ng/mL and 140 ng/mL and 138 ng/mL and 178 ng/mL and 160 ng/mL and 162 ng/mL
same,AUC,"[6]; healthy person alpha, 10 mg daily oral, day 14, printed in row of 23-24 h blood draw",1263 and 1447 and 1302 and 1925 and 1884 and 1985
same,"Formula I plasma concentration (ng/ml), Cmax","[6]; healthy person alpha, 45 mg daily oral, day 14, Cmax (blood draw 1-2 h)",1570 ng/mL and 1394 ng/mL and 1579 ng/mL and 1348 ng/mL and 1808 ng/mL
same,Formula I plasma concentration,"[6]; healthy person alpha, 45 mg daily oral, day 14, blood draw 0 h",866 ng/mL and 695 ng/mL and 862 ng/mL and 791 ng/mL and 957 ng/mL
same,Formula I plasma concentration,"[6]; healthy person alpha, 45 mg daily oral, day 14, blood draw 23 h",890 ng/mL and 693 ng/mL and 941 ng/mL and 779 ng/mL and 924 ng/mL
same,AUC,"[6]; healthy person alpha, 45 mg daily oral, day 14, printed in row of 23 h blood draw",6276 and 8418 and 6879 and 8712 and 8687 and 9833
same,"Formula I plasma concentration (ng/ml), Cmax","[6]; healthy person beta, 45 mg daily oral, day 14, Cmax (blood draw 1-3 h)",1465 ng/mL and 1198 ng/mL and 1313 ng/mL and 1713 ng/mL and 2112 ng/mL
same,Formula I plasma concentration,"[6]; healthy person beta, 45 mg daily oral, day 14, blood draw 0 h",832 ng/mL and 732 ng/mL and 714 ng/mL and 973 ng/mL and 1274 ng/mL
same,Formula I plasma concentration,"[6]; healthy person beta, 45 mg daily oral, day 14, blood draw about 24 h",929 ng/mL and 649 ng/mL and 749 ng/mL and 1033 ng/mL and 1249 ng/mL
same,AUC,"[6]; healthy person beta, 45 mg daily oral, day 14, printed in row of 24 h blood draw",10113 and 9936 and 6959 and 8066 and 11276 and 12977
same,stable in human EDTA plasma following freeze-thaw cycles,[7],at least 3 freeze- thaw cycles
same,stable in human EDTA plasma at -20° C.,[7]; -20° C.,at least 14 days
same,processed samples stable at room temperature,"[7]; processed (extracted) samples, room temperature",72 h
same,stable in human EDTA plasma at room temperature,[7]; room temperature,at least 24 h
same,Between-patient variability,[8],20.2%

# From patent US20230084144A1, “THERAPEUTIC COMBINATIONS OF DRUGS AND METHODS OF USING THEM” (ConSynance Therapeutics, Inc., priority 2020, published 2023)
